What was measured:
[1] = molecular target: T1, CDK2 (Homo sapiens, UniProt P24941); assay: Phospho-Rb HTRF measurement in OVCAR3 cells (inhibition of CDK2); format: cell-based; parameters: High-Throughput Measurement of Cellular Endogenous CDK2; endogenous in cells; host or cells: OVCAR3; details: pRB(S807/811) assay, 24 h compound treatment
Description: Phosphorylation of RB protein at S780 and S807/811 were measured using HTRF phospho-RB cellular kits (Cat #64RBS780PEG and 64RBS807PEG) from Cisbio.
On Day 1, OVCAR3 or KYSE520 cells were seeded into 96-well tissue-culture treated plates at 20,000 cells/well in 200 μL and incubated overnight at 37° C. in CO2 atmosphere. On Day 2, the cells were treated with test compounds at concentrations from 0.3 to 10,000 nM using HP D300 digital dispenser. Twenty-four hours after compound treatment, cell culture media was removed by flicking the plate and tapping the plate against clean paper towel. Immediately 30 μL 1× lysis buffer was supplemented from the kit and the plate was incubated at room temperature on shaker for 30 min. After homogenization by pipetting up and down, 8 μL cell lysate from 96-well cell culture plate was transferred to 384-well small volume white detection plate. 2 μL premixed detection solution was added and the plate was covered with sealer. To prepare the detection solution, d2 conjugated-phospho-RB antibody and Eu-cryptate conjugated phosphor-RB antibody were diluted into detection buffer following manufacturer's instruction. Detection plates were incubated for 4 h at room temperature and read on ClarioStar (BMG Labtech) in TR-FRET mode (665 nM and 620 nM). The TR-FRET ratio (665 nM/620 nM) was plotted against the compound concentration and normalized to DMSO controls. Half maximal inhibition concentration (IC50) values are calculated with a four-parameter logistic fit using GraphPad Prism (version 8; La Jolla, CA).

[2] = molecular target: T1, CDK2; assay: NanoBRET CDK2 engagement assay; format: cell-based; parameters: expressed in transfected cells; details: OVCAR3 cells with stable CDK2-Luciferase vector, 24 hours treatment
Description: OVCAR3 cells with stable transfection of CDK2-Luciferase vector were seeded into 96-well plate at a density of 20,000 cells per well, 50 μL Opti-MEM medium supplemented with 1% FBS. Following morning, cells were treated with compounds of the disclosure, with starting concentration at 3 μM and ½ log dilution down to 0.3 nM for 24 hours at 37° C. DMSO treatment serves as control. Compound engagement was then measured using NanoBRE™ Kinase Kit from Promega (Part Number: CS1810C122, NanoBRET™ TE Kinase Kit #10, 1K) following manufacturer's instruction. For 24 hours treatment, tracer was added only for the last 2 hours. Briefly, 2.5 μL of complete 20× NanoBRET Tracer was added to the cells in suspension. Immediately prior to BRET measurements, prepare 3× Complete NanoBRET® Nano-Glo® Substrate in Opti-MEM without serum and phenol red. Without any delay, 25 μL per well of 3× Complete NanoBRET™ Nano-Glo® Substrate for a 96-well plate was added and mixed well. Signal was then read on a CLARIOstar® plate reader (measure donor emission (e.g., 450 nm) and acceptor emission (e.g., 610 nm or 630 nm) using a NanoBRET™-compatible luminometer. Target engagement was calculated with DMSO treatment as 100% signal, and IC50 was calculated by GraphPad Prism 9.

Structure (SMILES)	IC50 [1] [nM]	IC50 [2] [nM]
O=C1CCC(N2Cc3cc(N4C5CCC4CN(Cc4cccc(S(=O)(=O)N6CCC(Nc7ncc8ccc(=O)n(C9CCCC9)c8n7)CC6)c4)C5)ccc3C2=O)C(=O)N1 (stereo not drawn) [Compound 52, 3-(5-(3-(3-((4-((8-cyclopentyl-7-oxo-7,8-dihydropyrido[2,3-d]pyrimidin-2-yl)amino)-piperidin-1-yl)sulfonyl)benzyl)-3,8-diazabicyclo-[3.2.1]octan-8-yl)-1-oxoisoindolin-2-yl)piperidine-2,6-dione]	1420	499
O=C1CCC(N2C(=O)c3ccc(CN4CC(Oc5ccc(S(=O)(=O)N6CCC(Nc7ncc8ccc(=O)n(C9CCCC9)c8n7)CC6)cc5)C4)cc3C2=O)C(=O)N1 (stereo not drawn) [compound 8, 5-((3-(4-((4-((8-cyclopentyl-7-oxo-7,8-dihydro-pyrido[2,3-d]pyrimidin-2-yl)amino)piperidin-1-yl)sulfonyl)phenoxy)azetidin-1-yl)methyl)-2-(2,6-dioxopiperidin-3-yl)isoindoline-1,3-dione]	438	257
O=C(COc1cccc2c1C(=O)N(C1CCC(=O)NC1=O)C2=O)NCCOCCN1CCN(S(=O)(=O)N2CCC(Nc3ncc4ccc(=O)n(C5CCCC5)c4n3)CC2)CC1 (stereo not drawn) [compound 3, N-(2-(2-(4-((4-((8-cyclopentyl-7-oxo-7,8-dihydropyrido[2,3-d]pyrimidin-2-yl)amino)-piperidin-1-yl)sulfonyl)piperazin-1-yl)-ethoxy)ethyl)-2-((2-(2,6-dioxopiperidin-3-yl)-1,3-dioxoisoindolin-4-yl)oxy)acetamide]	2670	3040
O=C(COc1cccc2c1C(=O)N(C1CCC(=O)NC1=O)C2=O)NCCOCCOCCOCCOCCN1CCN(S(=O)(=O)N2CCC(Nc3ncc4ccc(=O)n(C5CCCC5)c4n3)CC2)CC1 (stereo not drawn) [compound 6, N-(14-(4-((4-((8-cyclopentyl-7-oxo-7,8-dihydro-pyrido[2,3-d]pyrimidin-2-yl)amino)-piperidin-1-yl)sulfonyl)piperazin-1-yl)-3,6,9,12-tetraoxatetradecyl)-2-((2-(2,6-dioxopiperidin-3-yl)-1,3-dioxoisoindolin-4-yl)oxy)acetamide]	2250	1670
O=C1CCC(N2Cc3c(OCCN4CC(Oc5cccc(S(=O)(=O)N6CCC(Nc7ncc8ccc(=O)n(C9CCCC9)c8n7)CC6)c5)C4)cccc3C2=O)C(=O)N1 (stereo not drawn) [Compound 27, 3-(4-(2-(3-(3-((4-((8-cyclopentyl-7-oxo-7,8-dihydropyrido[2,3-d]pyrimidin-2-yl)amino)-piperidin-1-yl)sulfonyl)phenoxy)azetidin-1-yl)-ethoxy)-1-oxoisoindolin-2-yl)piperidine-2,6-dione]	882	334
Cn1c(=O)n(C2CCC(=O)NC2=O)c2cccc(C3CCN(C4CCN(S(=O)(=O)N5CCC(Nc6ncc7ccc(=O)n(C8CCCC8)c7n6)CC5)CC4)CC3)c21 (stereo not drawn) [Compound 31, 3-(4-(1′-((4-((8-cyclopentyl-7-oxo-7,8-dihydro-pyrido[2,3-d]pyrimidin-2-yl)amino)piperidin-1-yl)sulfonyl)-[1,4′-bipiperidin]-4-yl)-3-methyl-2-oxo-2,3-dihydro-1H-benzo[d]imidazol-1-yl)piperidine-2,6-dione]	294	64
O=C1CCC(N2Cc3c(OCCN4CCC(Oc5cccc(S(=O)(=O)N6CCC(Nc7ncc8ccc(=O)n(C9CCCC9)c8n7)CC6)c5)CC4)cccc3C2=O)C(=O)N1 (stereo not drawn) [Compound 29, 3-(4-(2-(4-(3-((4-((8-cyclopentyl-7-oxo-7,8-dihydropyrido[2,3-d]pyrimidin-2-yl)amino)-piperidin-1-yl)sulfonyl)phenoxy)piperidin-1-yl)ethoxy)-1-oxoisoindolin-2-yl)piperidine-2,6-dione]	216	426
O=C1CCC(N2C(=O)c3ccc(N4CC(Oc5ccc(S(=O)(=O)N6CCC(Nc7ncc8ccc(=O)n(C9CCCC9)c8n7)CC6)cc5)C4)cc3C2=O)C(=O)N1 (stereo not drawn) [compound 7, 5-(3-(4-((4-((8-cyclopentyl-7-oxo-7,8-dihydro-pyrido[2,3-d]pyrimidin-2-yl)amino)piperidin-1-yl)sulfonyl)phenoxy)azetidin-1-yl)-2-(2,6-dioxopiperidin-3-yl)isoindoline-1,3-dione]	1120	99.9
Cn1c(=O)n(C2CCC(=O)NC2=O)c2cccc(C3CN(Cc4cccc(S(=O)(=O)N5CCC(Nc6ncc7ccc(=O)n(C8CCCC8)c7n6)CC5)c4)C3)c21 (stereo not drawn) [Compound 40, 3-(4-(1-(3-((4-((8-cyclopentyl-7-oxo-7,8-dihydropyrido[2,3-d]pyrimidin-2-yl)amino)piperidin-1-yl)sulfonyl)benzyl)azetidin-3-yl)-3-methyl-2-oxo-2,3-dihydro-1H-benzo[d]imidazol-1-yl)piperidine-2,6-dione]	135	297
O=C1CCC(N2C(=O)c3ccc(N4CC(Oc5cccc(S(=O)(=O)N6CCC(Nc7ncc8ccc(=O)n(C9CCCC9)c8n7)CC6)c5)C4)cc3C2=O)C(=O)N1 (stereo not drawn) [Compound 12, 5-(3-(3-((4-((8-cyclopentyl-7-oxo-7,8-dihydro-pyrido[2,3-d]pyrimidin-2-yl)amino)piperidin-1-yl)sulfonyl)phenoxy)azetidin-1-yl)-2-(2,6-dioxopiperidin-3-yl)isoindoline-1,3-dione]	697	4780
Cn1nc(N2CCC(=O)NC2=O)c2ccc(C3CCN(Cc4cccc(S(=O)(=O)N5CCC(Nc6ncc7ccc(=O)n(C8CCCC8)c7n6)CC5)c4)CC3)cc21 [Compound 71, 1-(6-(1-(3-((4-((8-cyclopentyl-7-oxo-7,8-dihydropyrido[2,3-d]pyrimidin-2-yl)amino)-piperidin-1-yl)sulfonyl)-benzyl)piperidin-4-yl)-1-methyl-1H-indazol-3-yl)dihydropyrimidine-2,4(1H,3H)-dione]	10.3	167
O=C1CCC(N2C(=O)c3cc(F)c(N4CCN(Cc5cc(F)cc(S(=O)(=O)N6CCC(Nc7ncc8ccc(=O)n(C9CCCC9)c8n7)CC6)c5)CC4)cc3C2=O)C(=O)N1 (stereo not drawn) [Compound 43, 5-(4-(3-((4-((8-cyclopentyl-7-oxo-7,8-dihydro-pyrido[2,3-d]pyrimidin-2-yl)amino)piperidin-1-yl)sulfonyl)-5-fluorobenzyl)piperazin-1-yl)-2-(2,6-dioxopiperidin-3-yl)-6-fluoroisoindoline-1,3-dione]	465	401
O=C1CCC(N2C(=O)c3cc(F)c(N4C5CCC4CN(Cc4cccc(S(=O)(=O)N6CCC(Nc7ncc8ccc(=O)n(C9CCCC9)c8n7)CC6)c4)C5)cc3C2=O)C(=O)N1 (stereo not drawn) [Compound 47, 5-(3-(3-((4-((8-cyclopentyl-7-oxo-7,8-dihydro-pyrido[2,3-d]pyrimidin-2-yl)amino)piperidin-1-yl)sulfonyl)benzyl)-3,8-diazabicyclo[3.2.1]octan-8-yl)-2-(2,6-dioxopiperidin-3-yl)-6-fluoro-isoindoline-1,3-dione]	4030	590
Cn1c(=O)n(C2CCC(=O)NC2=O)c2cccc(CCCOCCNS(=O)(=O)N3CCC(Nc4ncc5ccc(=O)n(C6CCCC6)c5n4)CC3)c21 (stereo not drawn) [Compound 18, 4-((8-cyclopentyl-7-oxo-7,8-dihydropyrido[2,3-d]pyrimidin-2-yl)amino)-N-(2-(3-(1-(2,6-dioxopiperidin-3-yl)-3-methyl-2-oxo-2,3-dihydro-1H-benzo[d]imidazol-4-yl)propoxy)-ethyl)piperidine-1-sulfonamide]	700	188
O=C1CCC(N2C(=O)c3ccc(CN4CC(Oc5cccc(S(=O)(=O)N6CCC(Nc7ncc8ccc(=O)n(C9CCCC9)c8n7)CC6)c5)C4)cc3C2=O)C(=O)N1 (stereo not drawn) [Compound 17, 5-((3-(3-((4-((8-cyclopentyl-7-oxo-7,8-dihydro-pyrido[2,3-d]pyrimidin-2-yl)amino)piperidin-1-yl)sulfonyl)phenoxy)azetidin-1-yl)methyl)-2-(2,6-dioxopiperidin-3-yl)isoindoline-1,3-dione]	245	450
